Data published in patent US20250382344A1, “Soluble GLP1/GIP/NPY2 Receptor Triple Agonists” (Boehringer Ingelheim International GmH, priority 2024, published 2025).
pEC50: −log10 of the molar value. Where two headings read alike, the source gives them in different places.

Tests used:
hGLP1R = target: T1, hGLP1R (Homo sapiens, UniProt P43220); assay: hGLP1R CreLuc assay in 0.5% and 100% plasma (HEK-293 CRE-luciferase reporter cells); format: cell-based; conditions: HEK-293 reporter cells
T1 construct: expressed in transfected cells; host or cells: HEK-293 CRE-luciferase reporter cells
T1 sequence (P43220 24-463): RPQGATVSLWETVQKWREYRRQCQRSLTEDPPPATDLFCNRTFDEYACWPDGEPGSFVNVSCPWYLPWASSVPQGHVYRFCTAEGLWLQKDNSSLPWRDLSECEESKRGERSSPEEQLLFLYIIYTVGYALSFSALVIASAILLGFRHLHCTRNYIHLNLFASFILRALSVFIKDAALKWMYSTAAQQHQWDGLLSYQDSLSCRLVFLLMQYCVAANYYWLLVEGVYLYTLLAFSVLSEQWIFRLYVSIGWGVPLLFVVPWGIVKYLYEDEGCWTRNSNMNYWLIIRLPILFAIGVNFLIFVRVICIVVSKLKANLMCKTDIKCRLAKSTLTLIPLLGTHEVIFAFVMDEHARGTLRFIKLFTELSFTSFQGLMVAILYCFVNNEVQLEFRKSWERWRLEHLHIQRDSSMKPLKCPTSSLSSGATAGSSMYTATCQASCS

[1] = Solubility in 0.1 M phosphate buffer at pH 7; format: physicochemical; conditions: 0.1 M phosphate buffer at pH 7, 10 mg/mL final peptide concentration, shaking 2 hours at room temperature, peptides as TFA-salts, measured sample pH 6.5-7.0
hGIPR = target: T2, hGIPR (Homo sapiens, UniProt P48546); assay: hGIPR CreLuc assay in 0.5% and 100% plasma (CHO CRE-luciferase reporter cells); format: cell-based
T2 construct: expressed in transfected cells; host or cells: CHO CRE-luciferase reporter cells
T2 sequence (P48546 22-466): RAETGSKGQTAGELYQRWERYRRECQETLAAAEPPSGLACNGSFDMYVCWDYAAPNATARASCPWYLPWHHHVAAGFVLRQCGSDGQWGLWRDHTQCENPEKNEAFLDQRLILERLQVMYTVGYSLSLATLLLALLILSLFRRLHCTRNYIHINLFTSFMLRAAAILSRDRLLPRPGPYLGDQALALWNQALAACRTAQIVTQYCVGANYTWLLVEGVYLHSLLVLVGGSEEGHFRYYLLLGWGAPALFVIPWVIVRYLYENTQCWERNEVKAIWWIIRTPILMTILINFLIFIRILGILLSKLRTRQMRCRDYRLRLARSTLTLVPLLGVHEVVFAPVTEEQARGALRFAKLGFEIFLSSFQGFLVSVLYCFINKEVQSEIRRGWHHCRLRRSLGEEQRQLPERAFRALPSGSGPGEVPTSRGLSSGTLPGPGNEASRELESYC

[2] = 0.5% human plasma, read-out: hGLP1R 0.5% hP
[3] = 0.5% human plasma, read-out: hGIPR 0.5% hP
[4] = 100% human plasma, read-out: hGLP1R 100% hP
[5] = 100% human plasma, read-out: hGIPR 100% hP

SMILES	pEC50 (hGLP1R; [2])	solubility at 2 h [1] [µg/mL]	pEC50 (hGIPR; [3])	pEC50 (hGLP1R; [4])	pEC50 (hGIPR; [5])	solubility ([1]; read-out: Solubility) [µg/mL]
CC[C@H](C)[C@H](NC(=O)[C@H](CO)NC(=O)[C@H](Cc1ccc(O)cc1)NC(=O)[C@H](CC(=O)O)NC(=O)[C@H](CO)NC(=O)[C@@H](NC(=O)[C@H](Cc1ccccc1)NC(=O)[C@@H](NC(=O)CNC(=O)[C@H](CCC(=O)O)NC(=O)C(C)(C)NC(=O)[C@@H](N)Cc1ccc(O)cc1)[C@@H](C)O)[C@@H](C)O)C(=O)N[C@@H](CCC(=O)O)C(=O)N[C@@H](CC(C)C)C(=O)N[C@@H](CCC(=O)O)C(=O)N[C@@H](CCCCN)C(=O)N[C@@H](CCC(N)=O)C(=O)N[C@@H](C)C(=O)N[C@@H](CCC(N)=O)C(=O)NC(C)(C)C(=O)N[C@@H](C)C(=O)N[C@@H](Cc1ccccc1)C(=O)N[C@H](C(=O)N[C@@H](CCCNC(=N)N)C(=O)N[C@@H](Cc1c[nH]cn1)C(=O)N[C@@H](CC(C)C)C(=O)N[C@H](C(=O)N[C@@H](CC(N)=O)C(=O)N[C@@H](CCCCNC(=O)[C@@H](N)CCCCNC(=O)CC[C@H](NC(=O)CC[C@H](NC(=O)CC[C@H](NC(=O)CC[C@H](NC(=O)CC[C@H](NC(=O)CC[C@H](NC(=O)CCCCCCCCCCCCCCCCC(=O)O)C(=O)O)C(=O)O)C(=O)O)C(=O)O)C(=O)O)C(=O)O)C(=O)NC(C)(C)C(=O)N[C@H](C(=O)N[C@@H](CCCNC(=N)N)C(=O)N[C@@H](CCC(N)=O)C(=O)N[C@@H](CCCNC(=N)N)C(=O)N[C@@H](Cc1ccc(O)cc1)C(N)=O)[C@@H](C)O)[C@@H](C)CC)C(C)C [Compound 160, Y-Aib-E-G-T-F-T-S-D-Y-S-I-E-L-E-K-Q-A-Q-Aib-A-F-V-R-H-L-I-N-K(1,3)-Aib-T-R-Q-R-Y-NH2.C18DA-gGlu-gGlu-gGlu-gGlu-gGlu-gGlu-eLys(1,2)]	8.15	5200	9.40	–	–	–
CC[C@H](C)[C@H](NC(=O)[C@H](CC(C)C)NC(=O)[C@H](Cc1c[nH]cn1)NC(=O)[C@H](CCCNC(=N)N)NC(=O)[C@@H](NC(=O)[C@H](Cc1ccccc1)NC(=O)[C@H](C)NC(=O)C(C)(C)NC(=O)[C@H](CCC(N)=O)NC(=O)[C@H](C)NC(=O)[C@H](CCC(N)=O)NC(=O)[C@H](CCCCN)NC(=O)[C@H](CCC(=O)O)NC(=O)[C@H](CC(C)C)NC(=O)C(C)(C)NC(=O)[C@@H](NC(=O)[C@H](CO)NC(=O)[C@H](Cc1ccc(O)cc1)NC(=O)[C@H](CC(=O)O)NC(=O)[C@H](CO)NC(=O)[C@@H](NC(=O)[C@H](Cc1ccccc1)NC(=O)[C@@H](NC(=O)CNC(=O)[C@H](CCC(=O)O)NC(=O)C(C)(C)NC(=O)[C@@H](N)Cc1ccc(O)cc1)[C@@H](C)O)[C@@H](C)O)[C@@H](C)CC)C(C)C)C(=O)N[C@@H](CC(N)=O)C(=O)N[C@@H](CCCCNC(=O)CCCCCNC(=O)CCCCCNC(=O)CC[C@H](NC(=O)CC[C@H](NC(=O)CC[C@H](NC(=O)CC[C@H](NC(=O)CC[C@H](NC(=O)CCCCCCCCCCCCCCCCC(=O)O)C(=O)O)C(=O)O)C(=O)O)C(=O)O)C(=O)O)C(=O)NC(C)(C)C(=O)N[C@H](C(=O)N[C@@H](CCCNC(=N)N)C(=O)N[C@@H](CCC(N)=O)C(=O)N[C@@H](CCCNC(=N)N)C(=O)N[C@@H](Cc1ccc(O)cc1)C(N)=O)[C@@H](C)O [Compound 44, Y-Aib-E-G-T-F-T-S-D-Y-S-I-Aib-L-E-K-Q-A-Q-Aib-A-F-V-R-H-L-I-N-K(1,3)-Aib-T-R-Q-R-Y-NH2.C18DA-gGlu-gGlu-gGlu-gGlu-gGlu-AHX-AHX(1,2)]	9.70	9800	10.00	–	–	–
CC[C@H](C)[C@H](NC(=O)[C@H](CC(C)C)NC(=O)[C@H](Cc1c[nH]cn1)NC(=O)[C@H](CCCNC(=N)N)NC(=O)[C@@H](NC(=O)[C@H](Cc1ccccc1)NC(=O)[C@H](C)NC(=O)C(C)(C)NC(=O)[C@H](CCC(N)=O)NC(=O)[C@H](C)NC(=O)[C@H](CCC(N)=O)NC(=O)[C@H](CCCCN)NC(=O)[C@H](CCC(=O)O)NC(=O)[C@H](CC(C)C)NC(=O)C(C)(C)NC(=O)[C@@H](NC(=O)[C@H](CO)NC(=O)[C@H](Cc1ccc(O)cc1)NC(=O)[C@H](CC(=O)O)NC(=O)[C@H](CO)NC(=O)[C@@H](NC(=O)[C@H](Cc1ccccc1)NC(=O)[C@@H](NC(=O)CNC(=O)[C@H](CCC(=O)O)NC(=O)C(C)(C)NC(=O)[C@@H](N)Cc1ccc(O)cc1)[C@@H](C)O)[C@@H](C)O)[C@@H](C)CC)C(C)C)C(=O)N[C@@H](CC(N)=O)C(=O)N[C@@H](CCCCNC(=O)CC[C@H](NC(=O)CC[C@H](NC(=O)CC[C@H](NC(=O)CC[C@H](NC(=O)CC[C@H](NC(=O)CCCCCCCCCCCCCCCCC(=O)O)C(=O)O)C(=O)O)C(=O)O)C(=O)O)C(=O)O)C(=O)N[C@H](C(=O)N[C@H](C(=O)N[C@@H](CCCNC(=N)N)C(=O)N[C@@H](CCC(N)=O)C(=O)N[C@@H](CCCNC(=N)N)C(=O)N[C@@H](Cc1ccc(O)cc1)C(N)=O)[C@@H](C)O)[C@@H](C)CC [Compound 41, Y-Aib-E-G-T-F-T-S-D-Y-S-I-Aib-L-E-K-Q-A-Q-Aib-A-F-V-R-H-L-I-N-K(1,3)-I-T-R-Q-R-Y-NH2.C18DA-gGlu-gGlu-gGlu-gGlu-gGlu(1,2)]	9.05	4000	9.52	8.30	8.15	–
CC[C@H](C)[C@H](NC(=O)[C@H](CC(C)C)NC(=O)[C@H](Cc1c[nH]cn1)NC(=O)[C@H](CCCNC(=N)N)NC(=O)[C@@H](NC(=O)[C@H](Cc1ccccc1)NC(=O)[C@H](CCC(=O)O)NC(=O)C(C)(C)NC(=O)[C@H](CCC(N)=O)NC(=O)[C@H](C)NC(=O)[C@H](CCC(N)=O)NC(=O)[C@H](CCCCN)NC(=O)[C@H](CCC(=O)O)NC(=O)[C@H](CC(C)C)NC(=O)C(C)(C)NC(=O)[C@@H](NC(=O)[C@H](CO)NC(=O)[C@H](Cc1ccc(O)cc1)NC(=O)[C@H](CC(=O)O)NC(=O)[C@H](CO)NC(=O)[C@@H](NC(=O)[C@H](Cc1ccccc1)NC(=O)[C@@H](NC(=O)CNC(=O)[C@H](CCC(=O)O)NC(=O)C(C)(C)NC(=O)[C@@H](N)Cc1ccc(O)cc1)[C@@H](C)O)[C@@H](C)O)[C@@H](C)CC)C(C)C)C(=O)N[C@@H](CC(N)=O)C(=O)N[C@@H](CCCCNC(=O)CC[C@H](NC(=O)CC[C@H](NC(=O)CC[C@H](NC(=O)CC[C@H](NC(=O)CC[C@H](NC(=O)CC[C@H](NC(=O)CCCCCCCCCCCCCCCCC(=O)O)C(=O)O)C(=O)O)C(=O)O)C(=O)O)C(=O)O)C(=O)O)C(=O)NC(C)(C)C(=O)N[C@H](C(=O)N[C@@H](CCCNC(=N)N)C(=O)N[C@@H](CCC(N)=O)C(=O)N[C@@H](CCCNC(=N)N)C(=O)N[C@@H](Cc1ccc(O)cc1)C(N)=O)[C@@H](C)O [Compound 56, Y-Aib-E-G-T-F-T-S-D-Y-S-I-Aib-L-E-K-Q-A-Q-Aib-E-F-V-R-H-L-I-N-K(1,3)-Aib-T-R-Q-R-Y-NH2.C18DA-gGlu-gGlu-gGlu-gGlu-gGlu-gGlu(1,2)]	9.15	–	9.40	8.15	7.71	4400
CC[C@H](C)[C@H](NC(=O)[C@H](CC(C)C)NC(=O)[C@H](Cc1c[nH]cn1)NC(=O)[C@H](CCCNC(=N)N)NC(=O)[C@@H](NC(=O)[C@H](Cc1ccccc1)NC(=O)[C@H](C)NC(=O)C(C)(C)NC(=O)[C@H](CCC(N)=O)NC(=O)[C@H](C)NC(=O)[C@H](CCC(N)=O)NC(=O)[C@H](CCC(=O)O)NC(=O)[C@H](CCC(=O)O)NC(=O)[C@H](CC(C)C)NC(=O)[C@](C)(CC(C)C)NC(=O)[C@@H](NC(=O)[C@H](CO)NC(=O)[C@H](Cc1ccc(O)cc1)NC(=O)[C@H](CC(=O)O)NC(=O)[C@H](CO)NC(=O)[C@@H](NC(=O)[C@H](Cc1ccccc1)NC(=O)[C@@H](NC(=O)CNC(=O)[C@H](CCC(=O)O)NC(=O)C(C)(C)NC(=O)[C@@H](N)Cc1ccc(O)cc1)[C@@H](C)O)[C@@H](C)O)[C@@H](C)CC)C(C)C)C(=O)N[C@@H](CC(N)=O)C(=O)N[C@@H](CCCCNC(=O)[C@@H](N)CCCCNC(=O)CC[C@H](NC(=O)CC[C@H](NC(=O)CC[C@H](NC(=O)CC[C@H](NC(=O)CC[C@H](NC(=O)CC[C@H](NC(=O)CCCCCCCCCCCCCCCCCCC(=O)O)C(=O)O)C(=O)O)C(=O)O)C(=O)O)C(=O)O)C(=O)O)C(=O)NC(C)(C)C(=O)N[C@H](C(=O)N[C@@H](CCCNC(=N)N)C(=O)N[C@@H](CCC(N)=O)C(=O)N[C@@H](CCCNC(=N)N)C(=O)N[C@@H](Cc1ccc(O)cc1)C(N)=O)[C@@H](C)O [Compound 89, Y-Aib-E-G-T-F-T-S-D-Y-S-I-aMeL-L-E-E-Q-A-Q-Aib-A-F-V-R-H-L-I-N-K(1,3)-Aib-T-R-Q-R-Y-NH2.C20DA-gGlu-gGlu-gGlu-gGlu-gGlu-gGlu-eLys(1,2)]	9.70	8800	10.00	8.77	9.05	–
